Results as given in ChEMBL document CHEMBL4507319 (2021).

How the values were obtained:
[1] = target: T1, Serine/threonine-protein kinase STK11 (Homo sapiens) (UniProt Q15831); settings: Compound concentration 1000.0 nM
T1 sequence (whole entry): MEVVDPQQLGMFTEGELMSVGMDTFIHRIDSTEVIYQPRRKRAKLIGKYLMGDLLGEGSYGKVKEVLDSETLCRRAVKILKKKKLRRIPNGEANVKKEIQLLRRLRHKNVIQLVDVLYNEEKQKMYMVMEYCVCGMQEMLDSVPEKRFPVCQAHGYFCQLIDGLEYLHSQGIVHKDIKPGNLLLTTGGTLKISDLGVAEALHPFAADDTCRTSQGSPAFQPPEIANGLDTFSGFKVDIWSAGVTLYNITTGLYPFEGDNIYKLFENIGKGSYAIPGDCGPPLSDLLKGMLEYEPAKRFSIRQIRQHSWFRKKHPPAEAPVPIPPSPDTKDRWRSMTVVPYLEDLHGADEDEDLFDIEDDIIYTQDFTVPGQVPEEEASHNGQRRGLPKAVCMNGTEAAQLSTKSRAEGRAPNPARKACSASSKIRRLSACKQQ

[2] = target: Mitogen-activated protein kinase 7 (Homo sapiens) (UniProt Q13164); settings: Compound concentration 1000.0 nM
[3] = target: T2, Mitogen-activated protein kinase kinase kinase kinase 3 (Homo sapiens) (UniProt Q8IVH8); settings: Compound concentration 1000.0 nM
T2 sequence (whole entry): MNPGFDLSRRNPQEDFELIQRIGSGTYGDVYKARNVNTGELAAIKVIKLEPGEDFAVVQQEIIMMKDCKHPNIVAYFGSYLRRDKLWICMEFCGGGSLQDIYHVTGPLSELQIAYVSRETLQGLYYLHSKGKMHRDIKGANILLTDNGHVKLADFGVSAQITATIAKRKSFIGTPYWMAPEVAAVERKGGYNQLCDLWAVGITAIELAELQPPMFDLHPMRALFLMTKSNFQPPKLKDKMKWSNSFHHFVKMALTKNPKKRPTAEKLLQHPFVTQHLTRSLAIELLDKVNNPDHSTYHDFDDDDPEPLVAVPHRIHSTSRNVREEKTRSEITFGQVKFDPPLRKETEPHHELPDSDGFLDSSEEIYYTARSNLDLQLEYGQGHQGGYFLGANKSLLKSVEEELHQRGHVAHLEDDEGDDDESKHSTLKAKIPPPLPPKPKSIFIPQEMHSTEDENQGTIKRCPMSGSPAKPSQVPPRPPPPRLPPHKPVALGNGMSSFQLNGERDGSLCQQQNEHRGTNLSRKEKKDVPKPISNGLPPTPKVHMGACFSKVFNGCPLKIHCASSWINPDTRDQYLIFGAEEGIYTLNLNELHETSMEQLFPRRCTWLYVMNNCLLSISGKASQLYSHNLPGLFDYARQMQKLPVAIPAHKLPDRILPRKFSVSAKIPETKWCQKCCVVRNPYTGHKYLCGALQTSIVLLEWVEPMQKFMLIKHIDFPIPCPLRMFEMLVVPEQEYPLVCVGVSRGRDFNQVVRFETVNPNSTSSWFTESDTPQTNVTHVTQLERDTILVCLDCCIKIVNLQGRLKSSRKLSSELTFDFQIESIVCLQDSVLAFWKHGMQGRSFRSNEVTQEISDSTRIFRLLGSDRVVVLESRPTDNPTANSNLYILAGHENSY

[4] = target: Leucine-rich repeat serine/threonine-protein kinase 2 (Homo sapiens) (UniProt Q5S007); settings: Compound concentration 1000.0 nM
[5] = target: Focal adhesion kinase 1 (Homo sapiens) (UniProt Q05397); settings: Compound concentration 1000.0 nM
[6] = target: Calcium/calmodulin-dependent protein kinase type II subunit gamma (Homo sapiens) (UniProt Q13555); settings: Compound concentration 1000.0 nM
[7] = test system: Tyrosine-protein kinase ABL1 (Homo sapiens), P00519 [H396P]; settings: Compound concentration 1000.0 nM
[8] = target: T3, Mitogen-activated protein kinase 13 (Homo sapiens) (UniProt O15264); settings: Compound concentration 1000.0 nM
T3 sequence (whole entry): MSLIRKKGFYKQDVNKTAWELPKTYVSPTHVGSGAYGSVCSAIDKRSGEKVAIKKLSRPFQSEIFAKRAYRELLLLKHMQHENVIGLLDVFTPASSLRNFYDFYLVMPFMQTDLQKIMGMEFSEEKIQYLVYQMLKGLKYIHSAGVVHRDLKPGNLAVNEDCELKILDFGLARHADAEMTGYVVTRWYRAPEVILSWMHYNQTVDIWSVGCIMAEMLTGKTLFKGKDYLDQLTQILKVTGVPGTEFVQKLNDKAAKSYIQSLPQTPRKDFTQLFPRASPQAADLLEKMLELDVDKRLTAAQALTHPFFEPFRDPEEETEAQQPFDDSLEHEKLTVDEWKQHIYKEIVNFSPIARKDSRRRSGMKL

[9] = target: Myosin light chain kinase, smooth muscle (Homo sapiens) (UniProt Q15746); settings: Compound concentration 1000.0 nM
[10] = target: Macrophage colony-stimulating factor 1 receptor (Homo sapiens) (UniProt P07333); settings: Compound concentration 1000.0 nM
[11] = target: Muscarinic acetylcholine receptor M3 (Homo sapiens) (UniProt P20309); settings: Compound concentration 10.0 uM

Sequence of Focal adhesion kinase 1 (Homo sapiens) (Q05397 2-1052 limits assumed): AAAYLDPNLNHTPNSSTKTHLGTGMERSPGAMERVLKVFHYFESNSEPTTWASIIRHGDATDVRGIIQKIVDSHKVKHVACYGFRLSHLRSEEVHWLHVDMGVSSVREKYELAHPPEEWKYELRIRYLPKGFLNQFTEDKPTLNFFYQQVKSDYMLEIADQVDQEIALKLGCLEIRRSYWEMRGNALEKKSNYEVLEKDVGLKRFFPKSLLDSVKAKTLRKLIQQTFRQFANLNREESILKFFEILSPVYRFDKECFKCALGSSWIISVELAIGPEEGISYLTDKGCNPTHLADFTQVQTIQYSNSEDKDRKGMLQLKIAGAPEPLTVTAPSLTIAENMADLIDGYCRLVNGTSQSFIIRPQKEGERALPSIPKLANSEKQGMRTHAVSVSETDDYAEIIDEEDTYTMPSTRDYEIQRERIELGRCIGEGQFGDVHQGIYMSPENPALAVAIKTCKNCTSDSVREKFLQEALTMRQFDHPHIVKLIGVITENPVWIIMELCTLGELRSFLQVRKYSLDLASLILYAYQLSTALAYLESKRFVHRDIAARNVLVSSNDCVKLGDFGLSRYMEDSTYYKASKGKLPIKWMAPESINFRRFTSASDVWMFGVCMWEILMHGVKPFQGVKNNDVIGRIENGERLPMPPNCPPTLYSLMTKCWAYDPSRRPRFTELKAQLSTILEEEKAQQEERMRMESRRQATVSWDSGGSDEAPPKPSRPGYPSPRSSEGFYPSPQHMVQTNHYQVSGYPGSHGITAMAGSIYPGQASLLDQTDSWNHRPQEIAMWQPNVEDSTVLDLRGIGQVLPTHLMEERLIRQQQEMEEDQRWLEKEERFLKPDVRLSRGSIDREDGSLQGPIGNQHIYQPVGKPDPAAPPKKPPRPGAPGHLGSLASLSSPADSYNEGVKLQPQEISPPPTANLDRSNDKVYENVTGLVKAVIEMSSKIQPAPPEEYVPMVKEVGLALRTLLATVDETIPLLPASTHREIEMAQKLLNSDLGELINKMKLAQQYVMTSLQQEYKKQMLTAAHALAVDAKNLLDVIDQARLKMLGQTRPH
Sequence of Calcium/calmodulin-dependent protein kinase type II subunit gamma (Homo sapiens) (Q13555 whole entry): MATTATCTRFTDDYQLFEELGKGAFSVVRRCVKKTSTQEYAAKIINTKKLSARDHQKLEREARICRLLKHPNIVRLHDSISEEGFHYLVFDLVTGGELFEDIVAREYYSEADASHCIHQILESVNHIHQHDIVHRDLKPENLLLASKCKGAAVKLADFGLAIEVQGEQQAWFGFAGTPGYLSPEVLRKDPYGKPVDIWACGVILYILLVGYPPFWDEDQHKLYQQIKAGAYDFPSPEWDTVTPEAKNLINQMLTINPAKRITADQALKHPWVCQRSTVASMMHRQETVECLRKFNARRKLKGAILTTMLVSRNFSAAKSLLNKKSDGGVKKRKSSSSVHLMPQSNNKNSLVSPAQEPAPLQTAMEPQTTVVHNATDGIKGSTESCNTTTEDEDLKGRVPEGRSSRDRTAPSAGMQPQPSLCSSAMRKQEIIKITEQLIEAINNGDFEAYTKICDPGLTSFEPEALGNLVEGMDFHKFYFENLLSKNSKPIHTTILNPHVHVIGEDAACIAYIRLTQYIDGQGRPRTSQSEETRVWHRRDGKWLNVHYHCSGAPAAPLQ
Sequence of Leucine-rich repeat serine/threonine-protein kinase 2 (Homo sapiens) (Q5S007 whole entry): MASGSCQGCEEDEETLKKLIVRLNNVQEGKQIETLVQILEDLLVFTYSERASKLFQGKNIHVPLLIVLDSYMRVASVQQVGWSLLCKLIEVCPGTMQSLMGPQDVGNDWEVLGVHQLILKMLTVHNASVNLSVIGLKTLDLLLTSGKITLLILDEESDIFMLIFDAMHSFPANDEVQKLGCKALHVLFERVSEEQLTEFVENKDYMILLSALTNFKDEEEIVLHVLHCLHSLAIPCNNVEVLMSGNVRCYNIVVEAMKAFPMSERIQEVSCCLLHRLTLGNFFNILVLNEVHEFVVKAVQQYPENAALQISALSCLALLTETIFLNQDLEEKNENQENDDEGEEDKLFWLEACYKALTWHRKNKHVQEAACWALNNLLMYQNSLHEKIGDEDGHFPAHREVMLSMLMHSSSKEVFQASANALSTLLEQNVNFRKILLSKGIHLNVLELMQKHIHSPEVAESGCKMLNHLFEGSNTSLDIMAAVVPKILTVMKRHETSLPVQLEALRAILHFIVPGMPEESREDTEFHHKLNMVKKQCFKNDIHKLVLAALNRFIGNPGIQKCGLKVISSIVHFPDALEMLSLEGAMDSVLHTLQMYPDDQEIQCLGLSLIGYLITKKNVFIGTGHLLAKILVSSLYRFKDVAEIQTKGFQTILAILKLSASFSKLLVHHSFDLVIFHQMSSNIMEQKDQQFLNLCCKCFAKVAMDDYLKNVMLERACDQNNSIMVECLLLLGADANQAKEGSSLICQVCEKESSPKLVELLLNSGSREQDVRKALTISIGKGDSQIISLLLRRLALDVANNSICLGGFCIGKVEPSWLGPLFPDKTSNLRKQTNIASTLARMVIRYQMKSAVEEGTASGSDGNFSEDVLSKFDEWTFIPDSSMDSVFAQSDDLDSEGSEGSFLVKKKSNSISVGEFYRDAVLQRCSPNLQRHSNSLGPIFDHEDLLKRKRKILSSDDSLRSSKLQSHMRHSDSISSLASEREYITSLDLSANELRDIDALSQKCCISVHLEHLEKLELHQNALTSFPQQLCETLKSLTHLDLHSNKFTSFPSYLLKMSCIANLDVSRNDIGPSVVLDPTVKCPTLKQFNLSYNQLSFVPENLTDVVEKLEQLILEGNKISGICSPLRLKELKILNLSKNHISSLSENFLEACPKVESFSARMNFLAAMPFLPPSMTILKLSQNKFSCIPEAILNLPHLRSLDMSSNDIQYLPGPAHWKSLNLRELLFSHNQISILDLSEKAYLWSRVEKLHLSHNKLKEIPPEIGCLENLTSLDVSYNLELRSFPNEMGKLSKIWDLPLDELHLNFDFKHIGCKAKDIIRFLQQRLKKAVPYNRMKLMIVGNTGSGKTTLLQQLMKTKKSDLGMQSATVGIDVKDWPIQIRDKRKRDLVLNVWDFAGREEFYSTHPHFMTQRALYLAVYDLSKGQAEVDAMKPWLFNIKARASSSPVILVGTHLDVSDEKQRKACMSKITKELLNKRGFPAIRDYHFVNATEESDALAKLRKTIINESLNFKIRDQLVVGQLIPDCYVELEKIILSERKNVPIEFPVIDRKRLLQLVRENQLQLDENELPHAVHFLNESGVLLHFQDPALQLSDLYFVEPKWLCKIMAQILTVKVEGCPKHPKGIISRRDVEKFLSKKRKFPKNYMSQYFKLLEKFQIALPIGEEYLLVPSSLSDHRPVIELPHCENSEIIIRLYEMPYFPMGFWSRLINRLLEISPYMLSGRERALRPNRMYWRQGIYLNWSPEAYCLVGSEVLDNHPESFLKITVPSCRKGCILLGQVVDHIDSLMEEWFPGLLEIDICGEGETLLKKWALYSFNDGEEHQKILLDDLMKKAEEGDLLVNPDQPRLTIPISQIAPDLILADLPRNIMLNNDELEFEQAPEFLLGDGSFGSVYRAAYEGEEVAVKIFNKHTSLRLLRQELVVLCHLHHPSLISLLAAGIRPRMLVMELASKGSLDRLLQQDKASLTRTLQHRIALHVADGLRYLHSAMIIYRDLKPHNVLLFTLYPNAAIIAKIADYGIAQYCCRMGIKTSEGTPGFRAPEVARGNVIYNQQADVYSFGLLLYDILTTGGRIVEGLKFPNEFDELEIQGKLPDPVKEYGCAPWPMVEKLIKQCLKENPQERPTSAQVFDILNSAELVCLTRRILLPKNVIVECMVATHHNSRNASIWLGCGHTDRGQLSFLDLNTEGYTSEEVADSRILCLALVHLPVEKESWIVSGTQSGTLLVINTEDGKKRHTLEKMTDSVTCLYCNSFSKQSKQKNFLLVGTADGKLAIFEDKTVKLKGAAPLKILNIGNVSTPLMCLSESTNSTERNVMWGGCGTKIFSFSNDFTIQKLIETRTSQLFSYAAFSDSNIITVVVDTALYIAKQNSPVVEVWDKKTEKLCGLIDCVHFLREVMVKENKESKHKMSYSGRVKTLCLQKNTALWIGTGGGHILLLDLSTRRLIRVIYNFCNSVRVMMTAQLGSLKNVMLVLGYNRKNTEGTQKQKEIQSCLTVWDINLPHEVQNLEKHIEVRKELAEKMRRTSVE
Sequence of Macrophage colony-stimulating factor 1 receptor (Homo sapiens) (P07333 whole entry): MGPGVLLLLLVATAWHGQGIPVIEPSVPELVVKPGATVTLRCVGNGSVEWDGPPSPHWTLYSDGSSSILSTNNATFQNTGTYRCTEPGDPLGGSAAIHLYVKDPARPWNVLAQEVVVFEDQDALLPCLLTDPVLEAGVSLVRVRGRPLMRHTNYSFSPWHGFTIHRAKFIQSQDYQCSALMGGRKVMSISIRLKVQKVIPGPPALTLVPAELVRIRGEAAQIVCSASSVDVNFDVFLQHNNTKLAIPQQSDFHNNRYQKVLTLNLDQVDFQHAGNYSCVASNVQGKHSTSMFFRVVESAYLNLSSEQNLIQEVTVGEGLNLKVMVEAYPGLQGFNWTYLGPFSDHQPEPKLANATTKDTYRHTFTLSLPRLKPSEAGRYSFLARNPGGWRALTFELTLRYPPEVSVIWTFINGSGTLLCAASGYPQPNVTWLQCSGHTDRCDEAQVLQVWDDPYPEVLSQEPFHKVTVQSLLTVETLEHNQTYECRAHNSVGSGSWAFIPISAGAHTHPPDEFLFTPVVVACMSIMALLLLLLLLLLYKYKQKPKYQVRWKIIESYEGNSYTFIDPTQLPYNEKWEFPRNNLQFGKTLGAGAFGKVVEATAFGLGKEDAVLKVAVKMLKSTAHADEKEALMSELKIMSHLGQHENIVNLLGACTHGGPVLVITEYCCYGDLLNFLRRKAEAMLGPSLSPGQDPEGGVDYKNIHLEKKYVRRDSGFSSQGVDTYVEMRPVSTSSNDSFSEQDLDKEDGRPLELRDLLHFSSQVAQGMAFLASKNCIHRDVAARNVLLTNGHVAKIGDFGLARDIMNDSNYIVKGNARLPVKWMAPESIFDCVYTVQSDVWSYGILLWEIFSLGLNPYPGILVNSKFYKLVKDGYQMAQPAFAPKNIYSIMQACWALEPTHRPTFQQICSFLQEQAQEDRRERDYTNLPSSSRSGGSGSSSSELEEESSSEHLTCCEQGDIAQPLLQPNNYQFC

CC1=C(C#N)C(c2ccc3c(c2)c(NC(=O)c2ccccc2C)nn3C)C(C#N)=C(C)N1 [BAY-974]
inactive: residual activity [1] 89% | residual activity [2] 100% | residual activity [3] 80% | residual activity [4] 88% | residual activity [5] 94% | residual activity [6] 100% | residual activity [7] 82% | residual activity [8] 79% | residual activity [9] 100% | residual activity [10] 99% | inhibition [11] 9.49%

CCc1ccccc1C(=O)Nc1n[nH]c2c(C)c(F)c(C3C(C#N)=C(C)N(C)C(C)=C3C#N)cc12 [BAY-3827]
inactive: residual activity [1] 100% | residual activity [2] 86% | residual activity [3] 100% | residual activity [4] 100% | residual activity [5] 82% | residual activity [6] 79% | residual activity [7] 97% | residual activity [8] 96% | residual activity [9] 55% | residual activity [10] 100% | inhibition [11] 22.5%
